In the supplement of paper PMC11997997:

Legend:
[1] = test system: murine bone marrow-derived macrophages; test: area under cytotoxicity dose-response curve (AUC (% cytotoxicity x dose, relative)); higher = more cytotoxic; conditions: duration: 6 days; dose range: 0.13-80 uM, 8 points
Procedure, shortened: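 Using opaque 384-well plates, primary murine bone marrow-derived macrophages were treated for 6 days at 37 °C in 5% CO2 with an 8-point, 2.5-fold dilution series spanning final concentrations of 80–0.13 μM. After CellTiter-Glo (Promega) luminescence readout of viability, percent cytotoxicity was normalised to vehicle and positive control wells. The reported value is the area under the dose–response curve for cytotoxicity, derived in GraphPad Prism version 10.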

[2] = test system: Mycobacterium tuberculosis CDC1551 (intracellular, in murine BMDM); test: area under intracellular growth-inhibition dose-response curve (AUC (% inhibition x dose, relative)); higher = more potent; conditions: duration: 6 days; dose range: 0.13-80 uM, 8 points
Procedure, shortened: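 Primary murine bone marrow-derived macrophages in 384-well opaque plates were infected 24 h after seeding with luciferase-expressing M. tuberculosis CDC1551 at multiplicity of infection 1 for 1 h. They were then treated with an 8-dose, 2.5-fold series (final 80–0.13 μM) for 6 days. Growth was read by Bright-Glo luciferin assay and normalised to a reference drug control and the lowest-concentration wells. The value is the area under the growth-inhibition dose–response curve, calculated in GraphPad Prism.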

Row | Compound | area under cytotoxicity dose-response curve [1] | area under intracellular growth-inhibition dose-response curve [2]
1 | CCC(=O)NC(=S)Nc1ccc(N2CCN(C(=O)c3ccc(Cl)cc3)CC2)cc1 | 3.79 | 269
2 | CC(=O)c1c(C)[n+]([O-])c2cc(C)ccc2[n+]1[O-] | 31.7 | 95.3
3 | COc1ccc2nc(N3CCN(C(=O)c4ccc([N+](=O)[O-])o4)CC3)sc2c1 | 87 | 33.1
4 | CNc1cc(Cl)c2nonc2c1[N+](=O)[O-] | 10.1 | 3.12
5 | CC(C)Oc1cccc(C(=O)N2CCCC2)c1 | 54.6 | 43.1
6 | C/C(=N/NC(=O)c1ccncc1)c1ccccc1 | < 0 | 243
7 | Cc1sc(N/N=C/C=C/c2ccccc2)nc1-c1ccccc1 | 16.1 | 268
8 | CCN1/C(=C/c2ccc3cc(C)ccc3[n+]2C)Sc2ccc3sccc3c21.[I-] | 180 | 149
9 | CC1CCc2c(nc3sc4c(c3c2N)CCCC4)C1 (centres undefined) | 60.7 | 206
10 | O=C(Nc1ccc(N2CCN(C(=O)c3ccccc3)CC2)cc1)c1ccc([N+](=O)[O-])o1 | 24.1 | 127
11 | O=C(/C=C/c1cccs1)NCc1ccccc1 | 10.6 | 217
12 | O=C(Nc1ccc(S(=O)(=O)Nc2nccs2)cc1)C(F)(F)F | 30 | 159
13 | CC(C)CC(=O)NC(=S)Nc1ccc(NC(=O)c2cccs2)cc1 | 33.2 | 271
14 | C/C(=N\NC(N)=S)c1ccc(-n2ccnc2)cc1 | 69 | 195
15 | Cc1ccc(-c2nnc(C)c(N3CCCC3)n2)cc1 | 92.9 | 101
16 | CSc1nsc(SCC(=O)N2CCCCC2)n1 | 59 | 93.5
17 | Cc1ccc(-n2c(C)cc(/C=N/NC(=O)c3ccncc3)c2C)c(C)c1 | < 0 | 268
18 | Cc1ccc(C(C)C)c(OCc2n[n+](CC(=O)c3ccc(Cl)cc3)c3n2CCCCC3)c1.[Br-] | < 0 | 169
19 | COc1ccc(NC(=O)C(C)NC2=NS(=O)(=O)c3ccccc32)cc1S(N)(=O)=O (centres undefined) | 8.48 | 63.2
20 | Cc1ccc(C[n+]2c(-c3ccc(C)cc3)cc(-c3ccc(C)cc3)cc2-c2ccc(C)cc2)cc1.[O-][Cl+3]([O-])([O-])[O-] | 59.3 | 253
21 | COCCNc1c(-c2ccc(OC)cc2)nc2ccc(Cl)cn12 | 32.9 | 87.8

Row | Compound | area under cytotoxicity dose-response curve [1] | area under intracellular growth-inhibition dose-response curve [2]
22 | Cc1c([N+](=O)[O-])cc(C(=O)NCc2ccc(F)cc2)cc1[N+](=O)[O-] | < 0 | 252
23 | COc1cc(/C=N/NC(=O)c2ccncc2)ccc1O | 11.1 | 217
24 | CCOc1ccc(C(=O)NC(=S)Nc2ccc(N3CCC(C)CC3)cc2)cc1[N+](=O)[O-] | 81.7 | 254
25 | CC(=O)/C=C(\C)Nc1ccccc1O | 95 | 54.6
26 | COc1ccc(NC(=O)C/C(C)=N/NC(=O)c2ccncc2)c([N+](=O)[O-])c1 | 129 | 169
27 | O=C(NCc1ccco1)c1cc2c(s1)CCCCC2 | 42.6 | 255
28 | CC(C)c1ccc(NC(=S)Nc2ccc3c[nH]nc3c2)cc1 | < 0 | 271
29 | O=C(NCC1CC1)c1cc([N+](=O)[O-])cc([N+](=O)[O-])c1 | 36.7 | 202
30 | O=C(NCC1CCCCC1)c1ccco1 | 106 | 251
31 | O=C(CSc1ccc(Cl)cc1)NNC(=O)c1ccncc1 | 107 | 241
32 | CN(C)C1C(=O)C(C(N)=O)=C(O)C2(O)C(O)=C3C(=O)c4c(O)cccc4C(C)(O)C3C(O)C12 (centres undefined) | 22.3 | 166
33 | Cc1ccccc1N1CCN(Cc2ccc([N+](=O)[O-])o2)CC1 | < 0 | 263
34 | O=C(NCCc1ccc(F)cc1)NC12CC3CC(CC(C3)C1)C2 | 60.1 | 190
35 | CCOc1ccc(NC(=S)Nc2ccc(OC)cc2)cc1 | 13 | 233
36 | O=C(NCC(c1cccs1)N1CCOCC1)c1cc([N+](=O)[O-])cc([N+](=O)[O-])c1 (centres undefined) | 20.1 | 276
37 | COc1cccc2c1C(=O)c1c(O)c3c(c(O)c1C2=O)C[C@](O)(C(C)=O)C[C@H]3O[C@@H]1C[C@@H](N)[C@@H](O)[C@@H](C)O1.Cl | 172 | 44.8
38 | c1ccc(-c2noc(CC3CCCCC3)n2)nc1 | 5.13 | 200
39 | CS(=O)(=O)N1CCN(C(=O)CCC2CCCC2)CC1 | 43.1 | 159
40 | CCCCCNC(=O)CCc1ccccc1 | < 0 | 130
41 | Cc1ccc(C)c(NC(=N)Nc2nc(C)cc(C)n2)c1 | < 0 | 218
42 | COc1ccc(CCNC(=O)c2cc(-c3ccccn3)nc3ccccc23)cc1 | 17.5 | 40.6

Row | Compound | area under cytotoxicity dose-response curve [1] | area under intracellular growth-inhibition dose-response curve [2]
43 | Cc1ccc(C(=O)NC2CCCCC2)cc1 | 43.3 | 228
44 | CSc1ncccc1C(=O)OCC(=O)c1ccc[nH]1 | < 0 | 159
45 | CC(C)(C)c1csc(N/N=C/c2ccc(O)cc2)n1 | 19.1 | 235
46 | Cc1ccc(C(=O)NC2CCCCCC2)o1 | < 0 | 263
47 | COc1cc(/C=N/NC(N)=S)ccc1OC(=O)c1ccc(C)cc1 | 23.5 | 264
48 | O=C(Nc1ccc(C(=O)Oc2ccccc2)c(O)c1)c1ccco1 | 4.02 | 223
49 | CCOc1cc(/C=N\Nc2nc(-c3ccc(C)cc3)c(NC(C)=O)s2)ccc1O | < 0 | 256
50 | O=C(CSc1cccc[n+]1[O-])CSc1cccc[n+]1[O-] | 9.55 | 29.1
51 | CN1CCN(c2c(F)cc3c(=O)c(C(=O)[O-])cn4c3c2OCN4C)CC1 | 18.2 | 187
52 | COc1ccc(NS(=O)(=O)c2cccc(N3CC(=O)C(c4ccccc4)=C3N)c2)cc1 | 45.7 | 43.8
53 | CC(C)Oc1ccc(C(=O)NC(=S)Nc2ccc(CN3CCOCC3)cc2)cc1 | 2.7 | 136
54 | C[C@@H](CN1CCC[C@H]1CN1C(N)=NC[C@@H]1Cc1ccccc1)N1C[C@@H](Cc2ccccc2)N(CCCC2CCCC2)C1=N | 22.1 | 98
55 | O=C1N(c2nncs2)CCN1[N+](=O)[O-] | < 0 | 97.8
56 | O=C(/C=C/c1cccs1)N1CCCC1 | 3.62 | 168
57 | Cc1nnc(SCC(=O)NNC(=O)COc2ccc(Br)cc2)n1C | 1.25 | 68.9
58 | Cc1c(Cl)c(C(F)F)nn1CC(=O)NC1C(=O)N2C(C(=O)O)=C(CSc3nnnn3C)CSC12 (centres undefined) | 121 | 151
59 | C[n+]1c(-c2ccccc2)c2cc(N)ccc2c2ccc(N)cc21.[Br-] | 30.1 | 59.8
60 | CN(C)S(=O)(=O)c1ccc(C(=O)OCC(=O)NC(=O)NC2CCCC2)cc1 | < 0 | 165
61 | C/C(Cn1cnc([N+](=O)[O-])n1)=N/NC(=O)COc1c(Cl)cc(Cl)cc1Cl | < 0 | 196
62 | O=C(NC1CCCCCCC1)c1ccc(F)cc1 | 16.9 | 180
